In US10494332B2, “Protein tyrosine phosphatases or SHP2 inhibitors and uses thereof” (Indiana University Research and Technology Corporation, priority 2015, dated 2019):

Columns and labels:
M. tuberculosis Erdman = assay: Microplate Alamar Blue assay (MABA) MIC; type: cell-based; conditions: Mycobacterium tuberculosis, minimum inhibitory concentration, read-out: In vitro anti-Mtb activity MABA-MIC Erdman
M. tuberculosis H37Rv = assay: Chronic TB infection in guinea pigs, adjunctive treatment with HRZ; type: in vivo, guinea pig; conditions: added to the standard regimen HRZ, after 6 weeks of treatment
[1] = Pharmacokinetics and bioavailability in guinea pigs; type: in vivo, guinea pig
Procedure: All drugs were suspended in 1% DMSO, 0.5% DEA, 48.5% PEG 400, and 50% water. Blood was collected for analysis of these drugs in plasma pre-dose and at 1, 4, 8, 24, and 48 h post-dose. Plasma was separated and stored at −70° C. until analysis. Plasma drug concentrations were determined by liquid chromatography-mass spectrometry and liquid chromatography-tandem mass spectrometry over the concentration range of 0.005-1 mg/L with dilution to 10 mg/L. Pharmacokinetic variables were calculated from individual drug concentration-time data using non-compartmental methods as implemented in WinNonlin version 5.0 (Pharsight, Mountain View, Calif.) as described earlier.

[2] = test system: M. tuberculosis (Erdman and H37Rv) in J774 macrophages; assay: Macrophage assay: growth of M. tuberculosis in IFN-γ activated J774 macrophages; type: cell-based, Mycobacterium tuberculosis
[3] = test system: mPTPB transfected Raw264.7 cells; assay: IFN-γ induced Erk1/2 phosphorylation in transfected Raw264.7 macrophages; type: cell-based, mouse
Procedure: Raw264.7 mouse macrophages were cultured in Dulbecco's modified Eagle's medium (DMEM) supplemented with 10% FBS (Invitrogen), penicillin (50 units/mL), and streptomycin (50 μg/mL) under a humidified atmosphere containing 5% CO2 at 37° C. Transfected Raw264.7 cells (Vector, WT-mPTPB) were seeded in a 12-well plate at a density of 4×10^4 cells/well. The following day cells were treated with mPTPB inhibitor 11a for 1 hour, then stimulated with IFN-γ (200 U/ml) for 1 hour. Subsequently, the cells were washed with ice-cold phosphate buffered saline, and lysed with lysis buffer on ice for 30 minutes. Cell lysate was then cleared by centrifuging at 13,000 rpm for 15 minutes. The phosphorylation of ERK1/2 was detected by Western blotting.

[4] = test system: insulin signaling pathway in HepG2 cells (LMWPTP); assay: Insulin signaling in HepG2 cells; type: cell-based; conditions: HepG2, 1 hour pretreatment, 5 nM insulin for 5 minutes
Procedure: To assess the effects of L335N15 in insulin signaling pathway, HepG2 cells were pretreated with L335N15 for 1 hour and were subsequently stimulated with 5 nM insulin for 5 minutes. […] Consistent with IR activation, downstream Akt phosphorylation (Ser473) was increased. […] Accordingly, LMWPTP inhibitors such as L335N15 described herein can be used to develop agents for the treatment of type 2 diabetes and insulin resistance.

## Cc1c(Br)cc(NC(=O)CS(=O)(=O)O)cc1Br
M. tuberculosis Erdman
  MIC: > 10 µM
M. tuberculosis H37Rv
  Further reduction of mean lung CFU relative to HRZ: 0.14 log10
[1]; guinea pig, in vivo, po
  Time plasma concentration 10-fold in excess of biochemical IC50: 12-14 hours
[1]; guinea pig, plasma, po
  Tmax: 2.5 h
[1]; oral
  Oral bioavailability and half-life in guinea pigs: good oral bioavailability and half-life
[2]; J774A.1 macrophages, low micromolar concentrations
  Anti-Mtb activity in infected macrophages: markedly decrease bacterial load
[2]; Mycobacterium tuberculosis, J774, IC90 in macrophages activated with interferon-γ, read-out: In vitro anti-Mtb activity, Mtb-infected macrophages (IC90)
  IC90: 1.38 µM

## O=C(C(c1ccccc1)S(=O)(=O)O)N1CCCC2CCCCC21 (centres unmarked) [Compound L319N53]
[3]; 8 nM, 16 nM, and 32 nM
  Erk1/2 phosphorylation in mPTPB transfected Raw264.7 cells: increased Erk1/2 phosphorylation
[3]; vector Raw264.7 cells
  Erk1/2 phosphorylation in vector cells: no effect

## O=C(CS(=O)(=O)O)Nc1nc2ccccc2s1 [Compound L335N15]
[4]
  Akt phosphorylation (Ser473): increased
[4]; relative to DMSO
  IR Tyr1162/1163 phosphorylation: enhanced IR Tyr1162/1163 phosphorylation in a dose-dependent fashion
